Laboratory results from patent US20260317324A1, “BIFUNCTIONAL COMPOUNDS FOR DEGRADING BRAF VIA UBIQUITIN PROTEOSOME PATHWAY” (Nurix Therapeutics, Inc., priority 2023, published 2026).

Molecular target: T1, BRAF V600E (Homo sapiens, UniProt P15056, V600E)
T1 construct: endogenous C-terminal HiBiT fusion tag on BRAF V600E allele; endogenous in cells; host or cells: A375 clone 1F10 (CRISPR-Cas9 knock-in of the HiBiT tag; parental A375 from ATCC)
Test: BRAF HiBiT degradation assay, C-terminal HiBiT-tagged BRAF V600E A375 cells (clone 1F10), Nano-Glo HiBiT Lytic assay
Type: cell-based
Details: for Dmax: A-375
In short: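 Endogenous BRAF V600E-HiBiT A375 (1F10), 10,000 cells/well, 24 h preculture; cpd 11-pt, 1 μM–0.01 nM half-log, n=2, 0.2% DMSO; HiBiT lytic detection 10 min RT; DC50 = fitted conc at Y=50; Obs. Dmax vs DMSO.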

[1] = A375 (BRAF V600E), DC50 at 50%: fitted conc. at Y=50
[2] = A375 (BRAF V600E), percentage protein degraded at maximal compound effect relative to DMSO
[3] = A375 (BRAF V600E, Class 1), DC50 at 50% degradation
[4] = A375 (BRAF V600E, Class 1), observed Dmax, % protein degraded relative to DMSO control

T1 sequence (P15056 whole entry V600E, the tested form may be a part): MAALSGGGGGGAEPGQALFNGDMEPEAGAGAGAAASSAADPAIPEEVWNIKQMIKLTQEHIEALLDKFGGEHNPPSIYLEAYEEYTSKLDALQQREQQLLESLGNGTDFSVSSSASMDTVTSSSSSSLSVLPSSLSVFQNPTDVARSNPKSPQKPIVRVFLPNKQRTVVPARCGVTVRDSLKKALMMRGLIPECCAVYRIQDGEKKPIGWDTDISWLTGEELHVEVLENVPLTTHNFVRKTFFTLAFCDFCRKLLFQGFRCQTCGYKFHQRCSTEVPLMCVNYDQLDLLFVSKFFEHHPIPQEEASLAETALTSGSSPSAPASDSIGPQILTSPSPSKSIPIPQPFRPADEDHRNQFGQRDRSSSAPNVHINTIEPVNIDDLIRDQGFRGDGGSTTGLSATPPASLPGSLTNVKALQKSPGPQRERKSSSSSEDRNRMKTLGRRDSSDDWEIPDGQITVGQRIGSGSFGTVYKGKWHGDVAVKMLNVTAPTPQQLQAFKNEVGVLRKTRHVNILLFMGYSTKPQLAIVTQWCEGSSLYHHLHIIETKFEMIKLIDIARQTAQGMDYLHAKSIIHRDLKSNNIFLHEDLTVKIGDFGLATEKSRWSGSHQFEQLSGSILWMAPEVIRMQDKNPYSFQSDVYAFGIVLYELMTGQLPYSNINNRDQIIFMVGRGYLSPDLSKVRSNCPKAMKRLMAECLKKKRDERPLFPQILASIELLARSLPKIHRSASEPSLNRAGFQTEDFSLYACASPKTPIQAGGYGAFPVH

DC50 [1] | Dmax [2] | DC50 [3] | Dmax [4] | SMILES
10 to 50 nM | > 70% | – | – | CCCS(=O)(=O)Nc1cccc(-c2nc(C)sc2-c2ccnc(Nc3ccc(N4CCN(CC5(F)CCN(c6ccc(C7CCC(=O)NC7=O)cc6)CC5)CC4)cc3)n2)c1F (racemic) [Compound 31, Rac-N-[3-(5-{2-[(4-{4-[(1-{4-[(3R)-2,6-dioxopiperidin-3-yl]phenyl}-4-fluoropiperidin-4-yl)methyl]piperazin-1-yl}phenyl)amino]pyrimidin-4-yl}-2-methyl-1,3-thiazol-4-yl)-2-fluorophenyl]propane-1-sulfonamide]
50 to 500 nM | 30 to 70% | – | – | CCCS(=O)(=O)Nc1cccc(-c2nc(C(C)(C)C)sc2-c2ccnc(NC3CC4(C3)CN(CC[C@H]3CCN(c5ccc(C6CCC(=O)NC6=O)cn5)C3)C4)n2)c1F (mixture of isomers) [Compound 172, N-[3-(2-tert-butyl-5-{2-[(2-{2-[(3S)-1-{5-[(3RS)-2,6-dioxopiperidin-3-yl]pyridin-2-yl}pyrrolidin-3-yl]ethyl}-2-azaspiro[3.3]heptan-6-yl)amino]pyrimidin-4-yl}-1,3-thiazol-4-yl)-2-fluorophenyl]propane-1-sulfonamide]
< 10 nM | > 70% | – | – | CCCS(=O)(=O)Nc1cccc(-c2nc(C)sc2-c2ccnc(Nc3ccc(N4CCN(CC5(C)CCN(c6ccc(C7CCC(=O)NC7=O)cn6)CC5)CC4)cc3)n2)c1F (racemic) [Compound 32, Rac-N-[3-(5-{2-[(4-{4-[(1-{5-[(3R)-2,6-dioxopiperidin-3-yl]pyridin-2-yl}-4-methylpiperidin-4-yl)methyl]piperazin-1-yl}phenyl)amino]pyrimidin-4-yl}-2-methyl-1,3-thiazol-4-yl)-2-fluorophenyl]propane-1-sulfonamide]
< 10 nM | > 70% | – | – | CCCS(=O)(=O)Nc1cccc(-c2nc(C3CCN(CC4CCN(C(=O)C5CCN(c6ccc(C7CCC(=O)NC7=O)cn6)CC5)CC4)CC3)sc2-c2ccnc(N)n2)c1F (racemic) [Compound 213, Rac-N-{3-[5-(2-aminopyrimidin-4-yl)-2-(1-{[1-(1-{5-[(3R)-2,6-dioxopiperidin-3-yl]pyridin-2-yl}piperidine-4-carbonyl)piperidin-4-yl]methyl}piperidin-4-yl)-1,3-thiazol-4-yl]-2-fluorophenyl}propane-1-sulfonamide]
10 to 50 nM | > 70% | – | – | CCCS(=O)(=O)Nc1cccc(-c2cn(-c3ccc(N4CCN(CC5CCN(c6ccc(C7CCC(=O)NC7=O)cn6)CC5)CC4)cc3)nc2-c2ccncc2)c1F (racemic) [Compound 20, Rac-N-{3-[1-(4-{4-[(1-{5-[(3R)-2,6-dioxopiperidin-3-yl]pyridin-2-yl}piperidin-4-yl)methyl]piperazin-1-yl}phenyl)-3-(pyridin-4-yl)-1H-pyrazol-4-yl]-2-fluorophenyl}propane-1-sulfonamide]

Second part, the compound before the results:

SMILES | DC50 [1] | Dmax [2] | DC50 [3] | Dmax [4]
CCCS(=O)(=O)Nc1cccc(-c2nc(C(C)(C)C)sc2-c2ccnc(Nc3cnn(CC4CCN(C(=O)CN5CCN(c6cc(C7CCC(=O)NC7=O)ccn6)CC5)CC4)c3)n2)c1F (racemic) [Compound 113, Rac-N-{3-[2-tert-butyl-5-(2-{[1-({1-[2-(4-{4-[(3R)-2,6-dioxopiperidin-3-yl]pyridin-2-yl}piperazin-1-yl)acetyl]piperidin-4-yl}methyl)-1H-pyrazol-4-yl]amino}pyrimidin-4-yl)-1,3-thiazol-4-yl]-2-fluorophenyl}propane-1-sulfonamide] | 10 to 50 nM | > 70% | – | –
CCCS(=O)(=O)Nc1cccc(-c2nc(C3(C)CCN(C(=O)CC4CCN(C5CCN(c6ccc7c(c6)C(=O)N(C6CCC(=O)NC6=O)C7=O)CC5)CC4)CC3)sc2-c2ccnc(N)n2)c1F (racemic) [Compound 249, Rac-N-{3-[5-(2-aminopyrimidin-4-yl)-2-{1-[2-(1′-{2-[(3R)-2,6-dioxopiperidin-3-yl]-1,3-dioxo-2,3-dihydro-1H-isoindol-5-yl}-[1,4′-bipiperidin]-4-yl)acetyl]-4-methylpiperidin-4-yl}-1,3-thiazol-4-yl]-2-fluorophenyl}propane-1-sulfonamide] | – | – | 50 to 500 nM | 30 to 70%
CCCS(=O)(=O)Nc1cccc(-c2nc(C(C)(C)C)sc2-c2ccnc(N[C@H]3CC[C@H](N4CCN(CC5CCN(c6ccc(C7CCC(=O)NC7=O)cn6)CC5)CC4)CC3)n2)c1F (mixture of isomers) [Compound 135, N-{3-[2-tert-butyl-5-(2-{[(1r,4r)-4-{4-[(1-{5-[(3RS)-2,6-dioxopiperidin-3-yl]pyridin-2-yl}piperidin-4-yl)methyl]piperazin-1-yl}cyclohexyl]amino}pyrimidin-4-yl)-1,3-thiazol-4-yl]-2-fluorophenyl}propane-1-sulfonamide] | 50 to 500 nM | 30 to 70% | – | –
CCCS(=O)(=O)Nc1cccc(-c2nc(C(C)(C)C)sc2-c2ccnc(Nc3cnn(CC4CCN(CC5CCN(c6ccc(C(=O)N[C@@H]7CCC(=O)NC7=O)nc6)CC5)CC4)c3)n2)c1F [Compound 66, 5-(4-{[4-({4-[(4-{2-tert-butyl-4-[2-fluoro-3-(propane-1-sulfonamido)phenyl]-1,3-thiazol-5-yl}pyrimidin-2-yl)amino]-1H-pyrazol-1-yl}methyl)piperidin-1-yl]methyl}piperidin-1-yl)-N-[(3R)-2,6-dioxopiperidin-3-yl]pyridine-2-carboxamide] | < 10 nM | > 70% | – | –
CCCS(=O)(=O)Nc1cccc(-c2nc(C3CCC4(CC3)CN(C(=O)C3CN(C5CCN(c6ccc7c(c6)C(=O)N(C6CCC(=O)NC6=O)C7=O)CC5)C3)C4)sc2-c2ccnc(N)n2)c1F (racemic) [Compound 241, Rac-N-{3-[5-(2-aminopyrimidin-4-yl)-2-{2-[1-(1-{2-[(3R)-2,6-dioxopiperidin-3-yl]-1,3-dioxo-2,3-dihydro-1H-isoindol-5-yl}piperidin-4-yl)azetidine-3-carbonyl]-2-azaspiro[3.5]nonan-7-yl}-1,3-thiazol-4-yl]-2-fluorophenyl}propane-1-sulfonamide] | < 10 nM | > 70% | – | –
O=C1CCC(c2ccc(N3CCC(CN4CCN(c5cnc(-n6cc(-c7cc(F)cc(NS(=O)(=O)N8CCCC8)c7F)c(-c7ccncc7)n6)nc5)CC4)CC3)nc2)C(=O)N1 (racemic) [Compound 343, Rac-N-{3-[1-(5-{4-[(1-{5-[(3R)-2,6-dioxopiperidin-3-yl]pyridin-2-yl}piperidin-4-yl)methyl]piperazin-1-yl}pyrimidin-2-yl)-3-(pyridin-4-yl)-1H-pyrazol-4-yl]-2,5-difluorophenyl}pyrrolidine-1-sulfonamide] | – | – | < 10 nM | > 70%
CCCS(=O)(=O)Nc1cccc(-c2nc(C(C)(C)C)sc2-c2ccnc(Nc3ccc(C4CCN(C(=O)C[C@@H]5CCN(c6ccc7c(c6)n(C)c(=O)n7C6CCC(=O)NC6=O)C5)CC4)cc3)n2)c1F (mixture of isomers) [Compound 162, N-{3-[2-tert-butyl-5-(2-{[4-(1-{2-[(3S)-1-{1-[(3RS)-2,6-dioxopiperidin-3-yl]-3-methyl-2-oxo-2,3-dihydro-1H-1,3-benzodiazol-5-yl}pyrrolidin-3-yl]acetyl}piperidin-4-yl)phenyl]amino}pyrimidin-4-yl)-1,3-thiazol-4-yl]-2-fluorophenyl}propane-1-sulfonamide] | 10 to 50 nM | 30 to 70% | – | –
CCCS(=O)(=O)Nc1cccc(-c2nc(C(C)(C)C)sc2-c2ccnc(NC3CCN(C4CCN(CC5CCN(c6ccc(C7CCC(=O)NC7=O)cn6)CC5)CC4)CC3)n2)c1F (racemic) [Compound 136, Rac-N-(3-{2-tert-butyl-5-[2-({1′-[(1-{5-[(3R)-2,6-dioxopiperidin-3-yl]pyridin-2-yl}piperidin-4-yl)methyl]-[1,4′-bipiperidin]-4-yl}amino)pyrimidin-4-yl]-1,3-thiazol-4-yl}-2-fluorophenyl)propane-1-sulfonamide] | 50 to 500 nM | 30 to 70% | – | –
CCCS(=O)(=O)Nc1cccc(-c2nc(C(C)(C)C)sc2-c2ccnc(Nc3ccc4c(c3)CCN(C(=O)CN3CCN(c5cc(C6CCC(=O)NC6=O)ccn5)CC3)C4)n2)c1F (racemic) [Compound 120, Rac-N-(3-{2-tert-butyl-5-[2-({2-[2-(4-{4-[(3R)-2,6-dioxopiperidin-3-yl]pyridin-2-yl}piperazin-1-yl)acetyl]-1,2,3,4-tetrahydroisoquinolin-6-yl}amino)pyrimidin-4-yl]-1,3-thiazol-4-yl}-2-fluorophenyl)propane-1-sulfonamide] | 50 to 500 nM | 30 to 70% | – | –
CCCS(=O)(=O)Nc1cccc(-c2nc(C(C)(C)C)sc2-c2ccnc(Nc3ccc(C4CCN(CC5CCN(c6ccc([C@@H]7CCC(=O)NC7=O)cc6)CC5)CC4)cc3)n2)c1F [Compound 90, N-[3-(2-tert-butyl-5-{2-[(4-{1-[(1-{4-[(3S)-2,6-dioxopiperidin-3-yl]phenyl}piperidin-4-yl)methyl]piperidin-4-yl}phenyl)amino]pyrimidin-4-yl}-1,3-thiazol-4-yl)-2-fluorophenyl]propane-1-sulfonamide] | 10 to 50 nM | 30 to 70% | – | –
O=C1CCC(c2ccc(N3CCC(CN4CCN(c5ccc(-n6cc(-c7cc(F)cc(NS(=O)(=O)N8CCCC8)c7F)c(-c7ccncc7)n6)c(F)c5)CC4)CC3)nc2)C(=O)N1 (racemic) [Compound 341, Rac-N-{3-[1-(4-{4-[(1-{5-[(3R)-2,6-dioxopiperidin-3-yl]pyridin-2-yl}piperidin-4-yl)methyl]piperazin-1-yl}-2-fluorophenyl)-3-(pyridin-4-yl)-1H-pyrazol-4-yl]-2,5-difluorophenyl}pyrrolidine-1-sulfonamide] | – | – | < 10 nM | > 70%
